In experiment [1] the test system is MLC20 phosphorylation. Briefly: MLC20 phosphorylation by urea gel/Western blotting in smooth muscle cells (SMC). It counts as cell-based, pig. The settings on record: 24 hrs, 10 μM Dex, 10 μM ActD, 100 μM Chx, 2 μM Cam, 100 μM Eto. On the procedure:
NIH 3T3 fibroblasts were obtained from ATCC and were grown in Dulbecco's Modified Eagle Medium (DMEM) (Gibco BRL, Gaithersburg, Md.) supplemented with 10% FBS and 1% penicillin and streptomycin in a 37° C. incubator. 3T3 cells were treated with 500 nM actinomycin D in DMEM containing 0.5% FBS without antibiotics for the 0, 2, 4, 8, 16, or 24 hours. Cells were then washed with phosphate buffered saline (PBS). Floating cells were collected by centrifugation and combined with attached cells that were harvested by trypsinization. MLC20 phosphorylation was quantified be Western blotting with an anti-MLC20 antibody (FIG. 1). In short, the harvested cells were treated with ice cold 10% TCA, 10 mM DTT to precipitate the cellular proteins. The pellets were washed with acetone, dissolved in 9 M urea, 10 mM DTT, 20 mM Tris, pH 7.5 and separated using glycerol-urea polyacrylamide gel electrophoresis (PAGE). The proteins were transferred to nitrocellulose, the un-, mono-, and di-phosphorylated forms of MLC20 were identified using an affinity purified antibody to MLC20 and horseradish peroxidase-linked secondary antibody (Jackson ImmunoResearch, West Grove, Pa.). Protein bands were visualized with ECL reagent and the stoichiometry of phosphorylation (mol PO4/mol MLC20) was calculated as described (Obara et al., 1989, “Okadaic acid, a phosphatase inhibitor, produces a Ca2+ and calmodulin-independent contraction of lamb tracheal smooth muscle,” Pfluger's Archiv. 414: 134-138).
The stoichiometry of MLC20 phosphorylation (FIG. 1B, inset) was quantified using the urea gel/Western blotting method described above in untreated (Un) pig pulmonary artery smooth muscle cells (SMC) and SMC treated with 10 μM dexamethasone (Dex), 10 μM actinomycin D (ActD), 100 μM cycloheximide (Chx), 2 μM camptothecin (Cam), and 100 μM etoposide (Eto) for 24 hrs (mean+/−SE, n=3).
Next, in order to determine whether MLC-DP can trigger cell death, SMC were treated with ML-7 or KT5926, two inhibitors of MLCK (Nakanishi et al., 1990; Garcia, 1998; and Bain et al., 2003).
SMC cells were either treated with 10 μM cytochalasin D (CytD) or grown on the non-ionic substrate polyHema to prevent attachment.
(A western blot detects proteins with antibodies after separation by electrophoresis.)

Experiment [2] concerns Mm5MT mouse mammary cancer cells. Briefly: Annexin V / PI flow cytometry apoptosis assay in Mm5MT cells. Type of experiment: cell-based. On the procedure: (§1) The Mm5MT mouse mammary adenocarcinoma cancer cell line was obtained from American Type Culture Collection (ATCC, Manassas, Va., USA) and was maintained in DMEM medium supplemented with 10% fetal bovine serum (FBS) and 100 U/ml penicillin, 100 μg/ml streptomycin. The MatLy-Lu (MLL) sub-line of the Dunning R-3327 prostate adenocarcinoma (graciously provided by B. Lokeshwar, University of Miami) (Lokeshwar et al., Int. J. Cancer 2002; 98:297-309) was maintained in RPMI1640 medium supplemented with 10% FBS, 250 nM dexamethasone, 100 U/ml penicillin and 100 μg/ml streptomycin.
Mm5MT or MLL cells (200,000 cells per well) were seeded in 6-well dishes one day before drug treatment and cultured as described above. On the day of the experiment, media was changed to DMEM supplemented with 0.5% FBS and the cells were treated with drugs as defined by the specific experimental protocol. ML-7 (Biomol, Plymouth Meeting, Pa.) was incubated with cells for 16 h when used alone. When used in combination with etoposide, ML-7 was added to cells 2 h before adding the indicated concentration of etoposide (Calbiochem, La Jolla, Calif.) and the cells were incubated with ML-7 and etoposide for an additional 16 h. The cells were then treated with trypsin, washed twice with cold PBS and re-suspended in 100 μl of buffer containing 10 mM Hepes, pH 7.4, 140 mM NaCl and 2.5 mM CaCl2 (binding buffer). […] Next, 400 μl of binding buffer was added per sample and the cells were analyzed cytofluorometrically using a Coulter Epics Elite ESP flow cytometer (Ex: 488 nm, Em: 585 nm). At least 10,000 cells were counted per analysis and cells that stained positive for annexin V and PI were judged to be apoptotic.
(§2) Cells were grown in culture dishes in Dulbecco's Modified Eagle Medium (Gibco BRL, Gaithersburg, Md.) supplemented with 10% FBS and 1% penicillin and streptomycin. […] The floating and attached cells were combined and analyzed using conventional methods.
(§3) To quantify apoptosis, cells were washed twice with cold PBS, resuspended in 100 μl of 10 mM Hepes, pH 7.4, 140 mM NaCl, 2.5 mM CaCl2 (Binding Buffer). […] After incubation, 400 μl of binding buffer was added per sample and cells were analyzed cytofluorimetrically using a Coulter Epics Elite ESP flow cytometer (excitation wavelength: 488 nm, emission wavelength: 585 nm). At least 10,000 cells were counted per analysis and cells that stained positive for Annexin V and PI were considered apoptotic.
The combined effects of ML-7 and etoposide to induce apoptosis in mouse Mm5MT mammary cancer cells was determined by pre-treating cells with vehicle (FIG. 9, open bar) or 10 μM ML-7 (shaded bar) for 2 h. Varying concentrations of etoposide (1-1000 μM) were then added and apoptosis was quantified 16 h later. […]

Experiment [3] concerns MLL rat prostate cancer cells. In words: Annexin V / PI flow cytometry apoptosis assay in MLL (MatLyLu) cells. It counts as cell-based. On the procedure: as §1
Mm5MT or MLL cells (200,000 cells per well) were seeded in 6-well dishes one day before drug treatment and cultured as described above. On the day of the experiment, media was changed to DMEM supplemented with 0.5% FBS and the cells were treated with drugs as defined by the specific experimental protocol. ML-7 (Biomol, Plymouth Meeting, Pa.) was incubated with cells for 16 h when used alone. When used in combination with etoposide, ML-7 was added to cells 2 h before adding the indicated concentration of etoposide (Calbiochem, La Jolla, Calif.) and the cells were incubated with ML-7 and etoposide for an additional 16 h. The cells were then treated with trypsin, washed twice with cold PBS and re-suspended in 100 μl of buffer containing 10 mM Hepes, pH 7.4, 140 mM NaCl and 2.5 mM CaCl2 (binding buffer). Then, 5 μl of FITC-conjugated annexin V (Pharmingen, San Diego, Calif.) and 10 μl of propidium iodide (PI) (50 μg/ml) were added and cells were incubated in the dark at room temperature for 15 min. Next, 400 μl of binding buffer was added per sample and the cells were analyzed cytofluorometrically using a Coulter Epics Elite ESP flow cytometer (Ex: 488 nm, Em: 585 nm). At least 10,000 cells were counted per analysis and cells that stained positive for annexin V and PI were judged to be apoptotic.
as §2, §3
Cells were collected 16 h after adding etoposide and apoptosis was quantified by FACS analysis.
(Flow cytometry measures light scatter and fluorescence of single cells or particles in a stream.)

Like-named read-outs stand apart in the source and are kept apart here.

Turning to `COc1cc([C@@H]2c3cc4c(cc3[C@@H](O[C@@H]3O[C@@H]5CO[C@@H](C)O[C@H]5[C@H](O)[C@H]3O)[C@H]3COC(=O)[C@H]23)OCO4)cc(OC)c1O` [etoposide], the MLC20 phosphorylation entry in experiment [1] is listed as “dephosphorylated”. Moreover, the EC50 in experiment [2] (etoposide alone, extrapolation (FIG. 8), read-out: concentration of etoposide required to induce apoptosis in 50% of the cells) was around 300 µM; in experiment [2] (minus ML-7, curve fitting (FIG. 9), read-out: concentration of etoposide required for inducing apoptosis in 50% of the cells) it was 572 µM; in experiment [2] (plus 10 μM ML-7 (2 h pre-treatment), curve fitting (FIG. 9), read-out: concentration of etoposide required for inducing apoptosis in 50% of the cells), 25.4 µM; in experiment [2] (plus ML-7 (10 μM), extrapolation (FIG. 8), read-out: concentration of etoposide required to induce apoptosis in 50% of the cells), around 20 µM; in experiment [3] (MLL cells, no ML-7 (FIG. 15), read-out: concentration of etoposide required for inducing apoptosis in 50% of the cells) it was 376 µM; in experiment [3] (MLL cells, with 5 μM ML-7 pre-treatment (FIG. 15), read-out: concentration of etoposide required for inducing apoptosis in 50% of the cells) it was 68 µM. Further, the EC50 in experiment [3] (MatLyLu cells, etoposide alone (FIG. 7), read-out: half-maximal concentration for producing apoptosis) is around 410 µM; in experiment [3] (MatLyLu cells, etoposide plus 5 μM ML-7 (FIG. 7), read-out: half-maximal concentration for producing apoptosis) it was around 40 µM.

The record behind these values is patent US20080081078A1, “Prevention of Cell Proliferation by Inhibiting Myosin Light Chain Kinase” (The Board of Trustees of the University of Illinois, priority 2006, published 2008).
